Reference: article PMC6149849, “Cymantrenyl-Nucleobases: Synthesis, Anticancer, Antitrypanosomal and Antimicrobial Activity Studies” (Molecules : A Journal of Synthetic Chemistry and Natural …, 2017)

How the values were obtained:
SKOV-3 cells = experiment: Intracellular ROS, H2DCF-DA fluorescent probe; format: cell-based, human; settings: SKOV-3, 0.5 × IC50, IC50, 2 × IC50
Source text: Oxidative stress is a part of the cytotoxic activity of many anticancer agents and the production of reactive oxygen species (ROS) is considered as one of the main molecular mechanisms accompanying chemotherapy, radiotherapy, and photodynamic therapy. Since ROS can act as both oxidants and antioxidants, depending on the conditions, pro- and anti-oxidant therapies have been proposed for the treatment of cancer. So far, both ROS scavenging and ROS boosting anticancer therapies have shown promising results in vitro and in vivo [48]. Using an appropriate fluorescence probe, we measured the amount of ROS in cancer cells that were treated with cymantrene derivatives. […] The greatest increase in ROS was observed after […], with the highest concentration of cymantrene conjugates employed (2 × IC50) (Figure 8). […] As compounds 1, 3, 5, and C were effective in the production ROS, as well as in the induction of apoptosis and autophagy, these processes might contribute together to the cytotoxic action of the molecules.
The intracellular ROS were measured with the oxidation-sensitive fluorescent probes 2′,7′-dichlorodihydrofluorescein diacetate (H2DCF-DA) (Sigma-Aldrich, St. Louis, MO, USA), as described elsewhere. The cell-permeant non-fluorescent dye H2DCF-DA is a reduced form of fluorescein that inside the cell, upon cleavage of the acetate groups by intracellular esterases and oxidation by ROS, is converted into the highly fluorescent product 2′,7′-dichlorofluorescein (DCF) (λex/λem: 498/525 nm). For the assay, 2 × 10^4 cells were seeded into wells of black flat-bottom 96-well microplates a day before the experiment. The next day, test compounds were added at concentrations of 0.5 × IC50, 1 × IC50, and 2 × IC50. […] After 24 h incubation, medium was removed, cell monolayers were washed twice with HBSS and 5 µM H2DCF-DA, dissolved in HBSS, was added to each well. The cells were incubated with the fluorescent probe for 30 min in the dark at 37 °C, and then the fluorescence of produced DCF was monitored over a time period of 0–3 h at 15-min intervals with a microplate reader.

[1] = tested on: Clinical S. aureus (MRSA) 31/12; experiment: Antibacterial liquid microdilution, clinical isolate; format: cell-based, Staphylococcus aureus
Procedure: (§1) This lack of activity against E. coli can be probably explained by an impeded cellular uptake of the compounds through the Gram-negative cell wall that consists of two layers and effective protein efflux pump systems. The antibacterial activities of 1 and C were further tested against four clinical isolates of S. aureus and two clinical isolates of S. epidermidis (Table 4).
(§2) The antibacterial activity of CymH, 1–7 and C and the reference drugs penicillin G and polymyxin B was tested by the liquid microdilution method under standard conditions using twofold dilution series, as described in the Clinical and Laboratory Standards Institute (CLSI), reference method M07-A8, and expressed as minimal inhibitory concentration (MIC) values. A panel of Gram-positive bacterial strains, S. aureus ATCC® 29213 (sensitive to methicillin, (MSSA)), S. aureus ATCC® 43300 (resistant to methicillin, (MRSA)), S. aureus ATCC 700787™ (intermediate to vancomycin, (VISA)), and S. epidermidis ATCC 12228™, and one Gram-negative, strain E. coli ATCC BAA-198™ (ESBL) were used. In addition, four clinical isolates of S. aureus (MSSA and MRSA) and two clinical isolates of S. epidermidis that were collected from different patients at the Medical University of Warsaw, Poland, were also tested. The bacterial cells were cultivated on tryptic soy agar (TSA) and nutrient agar (NA), according to ATCC recommendations. All of the strains were incubated at 37 °C. Tested compounds were dissolved in DMSO and then serially diluted twofold with cation-adjusted Mueller-Hinton broth (CAMHB). Then, 95 µL of the dilutions were dispensed into microdilution sterile plates (Mar-Four), followed by the addition of 5 µL of bacteria inoculum containing 5 × 10^4 CFU/mL. The final concentrations of the compounds ranged from 512 to 2 µg/mL. Each compound was tested in triplicate, and Penicillin G (8–0.15 µg/mL) and Polymyxin B (256–0.0625 µg/mL) were used as controls. The plates were incubated at 37 °C for 18 to 24 h depending on the bacterial strain. Thereafter, the absorbance was measured at λ = 540 nm and λ = 595 nm using a Spectrostar Omega microplate reader (BMG Labtech, Offenburg, Germany). The MIC value was defined as the lowest concentration of a compound that reduced the growth by 100%.

[2] = tested on: Clinical S. aureus (MRSA) 44/12; experiment: as above; format: cell-based, Staphylococcus aureus
Procedure: as §1, §2

[3] = tested on: Clinical S. aureus (MSSA) 26/11; experiment: as above; format: cell-based, Staphylococcus aureus
Procedure: as §1, §2

[4] = tested on: Clinical S. aureus (MSSA) 30/11; experiment: as above; format: cell-based, Staphylococcus aureus
Procedure: as §1, §2

[5] = tested on: Clinical S. epidermidis (MSSA) 37/12; experiment: as above; format: cell-based, Staphylococcus epidermidis
Procedure: as §1, §2

[6] = tested on: Clinical S. epidermidis (MSSA) 43/12; experiment: as above; format: cell-based, Staphylococcus epidermidis
Procedure: as §1, §2

S. aureus ATCC 25923 = experiment: Effect on bacterial morphology (SEM) with MIC and MBC; format: cell-based, Staphylococcus aureus
Procedure: In order to elucidate the bactericidal mechanism of action of cymantrenes, the effect of compound 1 on the morphology of S. aureus ATCC 25923 was exemplary studied by scanning electron microscopy (SEM) (Figure 9).
The effect of compound 1 on bacterial morphology was studied by SEM, as previously described. Briefly, samples of S. aureus ATCC 25923 (10^5 CFU/mL) were centrifuged (600× g, 5 min) and resuspended in growth medium containing compound 1 at concentration of 48 or 64 µg/mL. After incubation for 24 h at 37 °C, the cells were washed twice with PBS (0.1 × PBS), fixed with 2.5% glutaraldehyde (overnight), filtered (0.2 μm, pore size cutoff), and subsequently dehydrated in a series of ethanol washes (30%, 50%, 70%, 80%, 90% and 100%; twice for 15 min). The solvent was then evaporated and the samples were coated with a thin layer of platinum (15 nm). SEM images were recorded using a SEM Inspect F50 (FEI Co., Eindhoven, The Netherlands) at an energy range of 10–15 keV.

[7] = tested on: bloodstream forms of T. brucei clone 427-221a; settings: cited from earlier work
[8] = tested on: human myeloid leukemia HL-60 cells; settings: cited from earlier work

Row | Compound | generated intracellular ROS (SKOV-3 cells) | MIC, Clinical S. aureus (MRSA) 31/12 [1] | MIC, Clinical S. aureus (MRSA) 44/12 [2] | MIC, Clinical S. aureus (MSSA) 26/11 [3] | MIC, Clinical S. aureus (MSSA) 30/11 [4] | MIC, Clinical S. epidermidis (MSSA) 37/12 [5] | MIC, Clinical S. epidermidis (MSSA) 43/12 [6] | MIC, S. aureus ATCC 25923 (S. aureus ATCC 25923) | minimal bactericidal concentration; MBC, S. aureus ATCC 25923 (S. aureus ATCC 25923) | bacterial morphology by SEM (S. aureus ATCC 25923; 48 µg/mL and 64 µg/mL, 24 h) | MIC and GI50 ratios of cytotoxic to trypanocidal activities ([7]; HL-60 / T. brucei) | Selectivity GI50 Ratio ([7]; HL-60 / T. brucei) | Selectivity MIC Ratio ([7]; HL-60 / T. brucei) | GI50 [7] | T. brucei MIC [7] | GI50 [8] | HL-60 MIC [8]
1 | O=C(CCn1cc(F)c(=O)[nH]c1=O)[C]12[CH]3[CH]4[CH]5[CH]1[Mn]4532.[C-]#[O+].[C-]#[O+].[C-]#[O+] (centres unmarked) [Compound 1] | generated the largest amounts of ROS | 64 µg/mL | 32 µg/mL | 32 µg/mL | 64 µg/mL | 4 µg/mL | 8 µg/mL | 32 µg/mL | 128 µg/mL | severe morphological alterations in cell dimensions and structure, as well as the disruption of the outer envelope | – | – | – | – | – | – | –
2 | Nc1ncnc2c1ncn2CCC(O)[C]12[CH]3[CH]4[CH]5[CH]1[Mn]4532[P](c1ccccc1)(c1ccccc1)c1ccccc1.[C-]#[O+].[C-]#[O+] (racemic) [Compound 5] | generated the largest amounts of ROS | – | – | – | – | – | – | – | – | – | – | – | – | – | – | – | –
3 | Nc1ncnc2c1ncn2CCC(O)[C]12[CH]3[CH]4[CH]5[CH]1[Mn]45321[P](c2ccccc2)(c2ccccc2)CC[P]1(c1ccccc1)c1ccccc1.[C-]#[O+] (racemic) [Compound C] | generated the largest amounts of ROS | 32 µg/mL | 32 µg/mL | 32 µg/mL | 32 µg/mL | 16 µg/mL | 16 µg/mL | – | – | – | 7–13 | 13.1 | 10 | 1.67 ± 0.37 µM | 10 µM | 21.8 ± 8.6 µM | 100 µM
4 | O=c1[nH]c(=O)n(CCC(O)[C]23[CH]4[CH]5[CH]6[CH]2[Mn]5643[P](c2ccccc2)(c2ccccc2)c2ccccc2)cc1F.[C-]#[O+].[C-]#[O+] (racemic) [Compound 3] | generated the largest amounts of ROS | – | – | – | – | – | – | – | – | – | – | – | – | – | – | – | –
